Measurements published in US20110123530A1, “COMPOSITIONS AND METHODS FOR TREATING AND DIAGNOSING ASTHMA” (priority 2008, published 2011).

Key:
[1] = system: healthy and asthmatic subjects; experiment: Methacholine challenge testing (PC20, airway hyper-responsiveness); assay type: in vivo, human; conditions: median
Protocol: (§1) (A) Volume of air exhaled in the first second of a forced expiration (FEV1), a measure of airway obstruction. (B) Improvement in FEV1 after 4 puffs (360 μg) of albuterol (bronchodilator reversibility testing). (C) Provocative concentration of methacholine required to induce a 20% decline in FEV1 (PC20), a measure of airway hyper-responsiveness.
Healthy controls (N=27) had no history of lung disease and lacked airway hyper-responsiveness (PC20 methacholine >16 mg/mL). Certain studies included current smokers without asthma (N=16). Exclusion criteria for all subjects included upper respiratory tract infection in the previous 4 weeks, asthma exacerbation within 6 weeks and current use of salmeterol, astemizole, nedocromil sodium, sodium cromoglycate, methlyxanthines, montelukast or zafirlukast. Subjects underwent baseline evaluation by study physicians (including spirometry and methacholine challenge testing as described previously). Subjects also underwent allergen skin prick testing (ASPT) with a panel of 12 aeroallergens, a positive control and a negative control (Table 6).
The minimal concentration of methacholine in mg/ml required to induce a decrease in FEV1 of 20% (PC20, measured at a screening visit one week prior to bronchoscopy) is a measure of bronchial hyperresponsiveness. This is a measure of bronchial hyper-reactivity (BHR).
(§2) The asthmatic subjects were further analyzed with respect to additional demographic characteristics and clinical features as those described in Example 7. […] This difference in AHR was apparent despite inclusion criteria that required all asthmatics to have significant AHR (all asthmatics <8 mg/ml, all healthy controls >20 mg/ml).

[2] = system: healthy and asthmatic subjects; experiment: Bronchodilator reversibility testing: improvement in FEV1 after albuterol; assay type: in vivo, human; conditions: 4 puffs (360 μg) of albuterol, mean ± SD
Protocol: as §1
For the purposes of identifying subsets of patients with asthma who differ with respect to the molecular mechanism underlying their airway inflammation and the distinct inflammatory, pathological and clinical phenotypes characteristic of these subsets, we first conducted new analyses on our previously generated epithelial cell microarray data, and we then supplemented these new analyses with review of additional and detailed clinical characterization data (including data on bronchodilator reversibility and allergen skin test reactivity) from these same subjects and newly generated data, including: (i) gene expression profiles in homogenates of bronchial biopsies and alveolar macrophages; (ii) quantitative measures of subepithelial collagen and airway epithelial mucin in bronchial biopsies; (iii) total and differential cell counts in BAL.
as §2

| SMILES | Methacholine PC20 (provocative concentration required to cause a 20% decline in FEV1) ([1]; Healthy Control) [mg/mL] | Methacholine PC20 (provocative concentration required to cause a 20% decline in FEV1) ([1]; asthma, IL13 Signature Low) [mg/mL] | Methacholine PC20 (provocative concentration required to cause a 20% decline in FEV1) ([1]; asthma, IL-13 Signature High) [mg/mL] | ΔFEV1 with albuterol (% of baseline) ([2]; Healthy Control) | ΔFEV1 with albuterol (% of baseline) ([2]; asthma, IL13 Signature Low) | ΔFEV1 with albuterol (% of baseline) ([2]; asthma, IL-13 Signature High) |
| --- | --- | --- | --- | --- | --- | --- |
| CC(=O)OC(C)C[N+](C)(C)C (stereo not drawn) [Methacholine, methacholine] | 64 | 0.93 | 0.27 |  |  |  |
| CC(C)(C)NCC(O)c1ccc(O)c(CO)c1 (stereo not drawn) [albuterol] |  |  |  | 2.7 ± 3.4% of baseline | 9.7 ± 7.4% of baseline | 12.5 ± 9.8 % of baseline |
